# Measured values published in article PMC4567993, “A Novel Trypsin Inhibitor-Like Cysteine-Rich Peptide from the Frog Lepidobatrachus laevis Containing Proteinase-Inhibiting Activity” (Natural Products and Bioprospecting, 2015).
# No end group written: not given here.
# How the values were obtained:
# trypsin = assay: Trypsin inhibition, chromogenic substrate (serine protease inhibitory testing); type: biochemical; conditions: for Reciprocal reaction velocity of trypsin, 1/V av / Reaction velocity of trypsin, V av: pH 7.8, 37 °C, means of three duplicate experiments
# Description: (§1) Effects of the tested samples on the hydrolysis of synthetic chromogenic substrates by different serine proteases were assayed in 0.05 M Tris–HCl, pH 7.8 (for trypsin, Sigma T4665; thrombin, Sigma T4393; chymotrypsin, Sigma C4129; elastase, Sigma E1250; plasmin, Sigma P1867) or pH 8.45 (for substilisin, Sigma P5380) buffer at 37 °C. The protease (trypsin, 10 nM; thrombin, 10 nM; chymotrypsin, 21 nM; elastase, 23 nM and substilisin, 30 nM) and different amounts of LL-TIL (final concentrations ranging from 0.0 to 20 μM) were pre-incubated for 10 min at 37 °C. […] The formation of p-nitroaniline was monitored continuously at 405 for 2 min. For chymotrypsin, the reaction was monitored at 253 nm. The inhibition constant Ki was determined according to the reported method.
# thrombin = assay: Thrombin inhibition, chromogenic substrate; type: biochemical; conditions: thrombin 10 nM; 0.05 M Tris-HCl pH 7.8, 37 °C; LL-TIL 0.0 to 20 μM; pre-incubated 10 min; data not shown
# From the text: (§2) Presently, the biological role of proteinase inhibitory peptides in amphibian skins is explained mainly by two hypotheses. One is that several enzymes are involved in peptide precursor processing or peptide degradation in the skin and proteinase inhibitors negatively modulate the activity of these proteases to avoid premature degradation or release of skin peptides. The other hypothesis is that the peptides are surface anti-infective agent similar to AMPs because they inhibit extracellular proteases produced by invading bacteria. […] Further work is needed to address this issue.
# as §1
# chymotrypsin [1] = assay: Chymotrypsin inhibition, chromogenic substrate; type: biochemical; conditions: chymotrypsin 21 nM; 0.05 M Tris-HCl pH 7.8, 37 °C; monitored at 253 nm; LL-TIL 0.0 to 20 μM; pre-incubated 10 min; data not shown
# From the text: as §2, §1
# elastase [2] = assay: Elastase inhibition, chromogenic substrate; type: biochemical; conditions: elastase 23 nM; 0.05 M Tris-HCl pH 7.8, 37 °C; LL-TIL 0.0 to 20 μM; pre-incubated 10 min; data not shown
# From the text: as §2, §1
# plasmin = assay: Plasmin inhibition, chromogenic substrate; type: biochemical; conditions: 0.05 M Tris-HCl pH 7.8, 37 °C; LL-TIL 0.0 to 20 μM; pre-incubated 10 min; data not shown
# From the text: as §2, §1
# substilisin = assay: Substilisin inhibition, chromogenic substrate; type: biochemical; conditions: substilisin 30 nM; pH 8.45, 37 °C; LL-TIL 0.0 to 20 μM; pre-incubated 10 min; data not shown
# From the text: as §2, §1
# [3] = system: Bacillus subtilis (ATCC 6633); assay: Antimicrobial assay (MIC); type: cell-based; conditions: recombinant LL-TIL, data not shown
# Description: (§3) For antimicrobial assays, several microorganisms including Gram positive bacterium S. aureus (ATCC 25923), […] and fungus C. albicans (ATCC 20032) were obtained from Kunming Medical College. They were first grown in LB (Luria–Bertani) broth or yeast extract–peptone–dextrose broth as our previous methods. MIC (minimal inhibitory concentration) of tested sample against these microorganisms was determined as previous reports. The MIC is defined as the lowest concentration of tested sample to inhibit microorganism growth.
# [4] = system: Candida albicans (ATCC 20032); assay: Antimicrobial assay (MIC); type: cell-based; conditions: recombinant LL-TIL, ATCC 20032, fungus, data not shown
# Description: as §3
# [5] = system: Escherichia coli (ATCC 25922); assay: Antimicrobial assay (MIC); type: cell-based; conditions: recombinant LL-TIL, ATCC 25922, Gram-negative, data not shown
# Description: as §3
# [6] = system: Staphylococcus aureus (ATCC 25923); assay: Antimicrobial assay (MIC); type: cell-based; conditions: recombinant LL-TIL, ATCC 25923, Gram positive, data not shown
# Description: as §3
# microorganisms = assay: Antimicrobial assay, overall statement; type: cell-based; conditions: recombinant LL-TIL; S. aureus, E. coli, B. subtilis, C. albicans tested
# Description: as §3
# elastase [7] = system: elastase; design: method as in 3 sources, ref [14] = [14]; PMID 23533574; doi:10.1371/journal.pone.0057529; 14. Chen ZY Wang B Hu J Yang WS Cao ZJ Zhuo RX Li W Wu Y PLoS ONE 2013 8 e57529 10.1371/journal.pone.0057529 23533574 PMC3606364 ||| ref [15] = [15]; PMID 16191451; doi:10.1016/j.peptides.2005.07.013; 15. Fogaca AC Almeida IC Eberlin MN Tanaka AS Bulet P Daffre S Peptides 2006 27 667 674 10.1016/j.peptides.2005.07.013 16191451 ||| ref [20] = [20]; PMID 23200835; doi:10.1016/j.bbrc.2012.11.056; 20. Kim BY Lee KS Wan H Zou FM Choi YS Yoon HJ Kwon HW Je YH Jin BR Biochem. Biophys. Res. Commun. 2013 430 144 149 10.1016/j.bbrc.2012.11.056 23200835; conditions: ref [15]; cited from earlier work
# chymotrypsin [8] = system: chymotrypsin; design: method as in 2 sources, one per row (each row's own in cited_ref): ref [15] = [15]; PMID 16191451; doi:10.1016/j.peptides.2005.07.013; 15. Fogaca AC Almeida IC Eberlin MN Tanaka AS Bulet P Daffre S Peptides 2006 27 667 674 10.1016/j.peptides.2005.07.013 16191451 ||| ref [20] = [20]; PMID 23200835; doi:10.1016/j.bbrc.2012.11.056; 20. Kim BY Lee KS Wan H Zou FM Choi YS Yoon HJ Kwon HW Je YH Jin BR Biochem. Biophys. Res. Commun. 2013 430 144 149 10.1016/j.bbrc.2012.11.056 23200835; conditions: ref [15]; cited from earlier work
# [9] = design: method as in PMID 16191451; conditions: ref [15]; cited from earlier work
# trypsin (Sigma T4665) = assay: enzyme inhibition kinetics (chromogenic substrate, Dixon plot); trypsin 10 nM pre-incubated with LL-TIL for 10 min at 37 °C in 0.05 M Tris-HCl, pH 7.8; reaction started with substrate B-3133; p-nitroaniline followed at 405 for 2 min; Ki by Dixon plot from velocities at [S] = 0.2 and 0.4 mM
substance,measurement,setting,value
IRCPKDKIYKFCGSPCPPSCKDLTPNCIAVCKKGCFCRDGTVDNNHGKCVKKENC (disulfide (positions not given here)) [LL-TIL],inhibition of trypsin (in words),"trypsin; 0.05 M Tris-HCl pH 7.8, 37 °C, trypsin 10 nM, LL-TIL 0.0 to 20 μM",inhibited the activity of trypsin
same,"Reciprocal reaction velocity of trypsin, 1/V av","trypsin; [I] = 12.987 μM, [S] = 0.2 mM, 1/V av at [I] 0: 3.7864",5.2826
same,"Reaction velocity of trypsin, V av","trypsin; [I] = 12.987 μM, [S] = 0.2 mM, V av at [I] 0: 0.2641",0.1893
same,"Reciprocal reaction velocity of trypsin, 1/V av","trypsin; [I] = 12.987 μM, [S] = 0.4 mM, 1/V av at [I] 0: 2.7352",3.8700
same,"Reaction velocity of trypsin, V av","trypsin; [I] = 12.987 μM, [S] = 0.4 mM, V av at [I] 0: 0.3656",0.2584
same,"Reciprocal reaction velocity of trypsin, 1/V av","trypsin; [I] = 25.974 μM, [S] = 0.2 mM, 1/V av at [I] 0: 3.7864",7.3116
same,"Reaction velocity of trypsin, V av","trypsin; [I] = 25.974 μM, [S] = 0.2 mM, V av at [I] 0: 0.2641",0.1368
same,"Reciprocal reaction velocity of trypsin, 1/V av","trypsin; [I] = 25.974 μM, [S] = 0.4 mM, 1/V av at [I] 0: 2.7352",4.8481
same,"Reaction velocity of trypsin, V av","trypsin; [I] = 25.974 μM, [S] = 0.4 mM, V av at [I] 0: 0.3656",0.2063
same,Ki,"trypsin; recombinant LL-TIL, trypsin 10 nM, 0.05 M Tris-HCl pH 7.8, 37 °C, pre-incubated 10 min, chromogenic substrate B-3133, p-nitroaniline at 405 for 2 min, Dixon plot, [S] 0.2 and 0.4 mM",16.5 µM
same,inhibition of hydrolysis of chromogenic substrate by thrombin,thrombin,did not inhibit
same,inhibition of hydrolysis of chromogenic substrate by chymotrypsin,chymotrypsin [1],did not inhibit
same,inhibition of hydrolysis of chromogenic substrate by elastase,elastase [2],did not inhibit
same,inhibition of hydrolysis of chromogenic substrate by plasmin,plasmin,did not inhibit
same,inhibition of hydrolysis of chromogenic substrate by substilisin,substilisin,did not inhibit
same,antimicrobial ability against B. subtilis,[3],no antimicrobial abilities
same,antimicrobial ability against C. albicans,[4],no antimicrobial abilities
same,antimicrobial ability against E. coli,[5],no antimicrobial abilities
same,antimicrobial ability against S. aureus,[6],no antimicrobial abilities
same,antimicrobial activity (overall),microorganisms,no antimicrobial activity
Ixodidin: from hemocytes of the cattle tick,inhibition of elastase,elastase [7],able to inhibit
same,inhibition of chymotrypsin,chymotrypsin [8],able to inhibit
same,antimicrobial activity,[9],weak antimicrobial activities
"LL-TIL (trypsin inhibitor-like cysteine-rich peptide from Lepidobatrachus laevis), recombinant mature peptide",Ki,trypsin (Sigma T4665),16.5 µM
